Source: EP1038880B1, “Androstanes and pregnanes for allosteric modulation of GABA receptor” (priority 1994, dated 1995)
Where “and” joins values, the source holds several entries; their conditions need not be identical. Identical values can stand only once.

Assays:
[1] = test system: metrazol induced convulsions; assay: animal or person; format: in vivo, mice; conditions: for responders at 10 mg/kg: Mus musculus, 10 min, 10 minutes prior to metrazol (85 mg/kg), read-out: % Protected; for % Protected: water
Procedure: Experiments were also performed to determine the physiological relevance of neuroactive steroid and GABA receptor interactions by assessing the ability of the compounds of and used in the invention to prevent metrazol induced convulsions in mice. Mice were injected with various doses of the test compounds of the invention, 10 minutes prior to the injection of metrazol. The time to onset of myoclomis (presence of forelimb clonic activity) induced by metrazol was determined by observing each mouse for a period of 30 minutes. […] Table 6: Antimetrazol Activity of Neuroactive Steroids in Mice
The anticonvulsant tests are similar to that described above. […] The number of animals with tonic and/or clonic convulsions was recorded. In the maximal electroshock test, 50 mA of current at 60 Hz was delivered through corneal electrodes for 200 msec to induce tonic seizure. The ability of compounds to abolish the tonic component was defined as the endpoint. General CNS depression potential was determined by a rotorod test 10 minutes after the injection of compounds where the number of mice staying on a rotating (6 rpm) rod for 1 minute in one of the three trials was determined. […] Table 7. Anticonvulsant Activity of Exemplified Neuroactive Steroids and those of Selected Clinically Useful Anticonvulsants in Mice

GR complex = assay: [35S]TBPS binding assay (inhibition of [35S]TBPS binding, cerebral cortex P2 homogenate); set-up: species or system rat; conditions: for IC50: 2 nM [35S]TBPS, rat cerebral cortex P2 homogenate; for IMAX: maximum inhibition of [35S]TBPS binding
In short: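 Rat (male Sprague-Dawley) cortical P2 homogenate (0.5 mg protein) in 50 mM Na/K phosphate pH 7.4, 200 mM NaCl, incubated with 2 nM [35S]TBPS plus steroid test compounds (DMSO) in presence of GABA plus (+)bicuculline, 25°C, 90 min. Filtration, scintillation counting; nonspecific binding defined with […].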

[2] = test system: N.I.H. Swiss-Webster mice; assay: Elevated plus-maze; format: in vivo; conditions: for response vs control in vivo at 10 mg/kg: Mus musculus, ip, read-out: % Control; for % Control: PO, 10 mg/kg, water
Excerpt: The theoretical basis for the elevated plus-maze test is similar to that of the light/dark transition test. […] The apparatus consists of two open-arms and two enclosed-arms. The elevated plus-maze test allows for two measures of anxiety, the number of entries into the open-arms and the time spent on the open-arms, both expressed as a percentage of the total number of entries and time spent in/on both the open-arms and enclosed-arms.
Male N.LH. Swiss-Webster mice (Harlan, Indianapolis, IN) weighing 15-20 g were housed four per cage in polyethylene cages with sawdust bedding. The colony mom was environmentally controlled (22°C) with a 12^- hr light/dark cycle (0600-1800 hr). Food and water were available ad libitum, except during testing. The experiments were run from 0700-1500 hr and groups were counterbalance for time of day effects. Mice were only administered drug or vehicle once.
The apparatus included two open arms perpendicular to two enclosed arms elevated 50 cm from the floor. Each arm was 50 cm long and the walls of the enclosed arms were 40 cm tall. The maze was made completely of black plexiglass. Incandescent 200 W light bulbs were above each of the open arms to produce a strong contrast between the open arms and the enclosed arms.
Ten minutes after an injection, the N.I.H. Swiss-Webster mice were placed in the center of the plus-maze facing an open arm. During the 5 min test period, the number of entries onto the open arms and the enclosed arms, and the time spent in the open arms and enclosed arms were measured. All four paws had to be within an arm for the dependent variable to be measured. Therefore, the time spent in the center of the maze is not counted, so the total time spent in the open arms and the enclosed arms may not equal 5 min.

| SMILES | IC50 (GR complex) | IMAX (GR complex) | other results |
| --- | --- | --- | --- |
| CC(=O)C1CCC2C3CCC4CC(O)(C#CC(C)O)CCC4(C)C3CCC12C (racemic) [3β-[3'(R/S)-hydroxy-1'-butynyl]-3α-hydroxy-5α-pregnan-20-one] | 0.144 µM and 0.202 µM | 99% and 102% | responders at 10 mg/kg ([1]; IP, 10 mg/kg): 50% |
| CC(=O)C1CCC2C3CCC4CC(O)(C#CCC(C)O)CCC4(C)C3CCC12C (racemic) [3β-[4'(R/S) hydroxypentynyl]-3α-hydroxy-5β-pregnan-20-one] | 0.071 µM and 0.094 µM | 103% and 104% | responders at 10 mg/kg ([1]; IP, 10 mg/kg): 87.5% |
| CC(=O)[C@H]1CC[C@H]2[C@@H]3CC[C@@H]4C[C@@](O)(C#Cc5ccccn5)CC[C@]4(C)[C@H]3CC[C@]12C [3α-Hydroxy-3β-(2-pyridyl)ethynyl-5β-pregnan-20-one] | 0.108 µM | 98% | response vs control in vivo at 10 mg/kg [2]: 123%; responders at 10 mg/kg ([1]; IP, 10 mg/kg): 37.5% |
| CC(=O)[C@H]1CC[C@H]2[C@@H]3CC[C@@H]4C[C@@](O)(C#CCn5ccnn5)CC[C@]4(C)[C@H]3CC[C@]12C [3α-Hydroxy-3β-[3-(1'H-1,2,3-triazol-1'-yl)-1-propynyl]-5β-pregnan-20-one] | 0.655 µM | 102% | response vs control in vivo at 10 mg/kg [2]: 116%; responders at 10 mg/kg ([1]; IP, 10 mg/kg): 25% |
| CC(=O)[C@H]1CC[C@H]2[C@@H]3CC[C@@H]4C[C@@](O)(C#CCOc5ccncc5)CC[C@]4(C)[C@H]3CC[C@]12C [3α-Hydroxy-3β-[3-(4'-pyridinyloxy)-1-propynyl]-5β-pregnan-20-one] | 0.465 µM | 94% | responders at 10 mg/kg ([1]; IP, 10 mg/kg): 12.5% |
| C[C@@]1(O)CC[C@@]2(C)[C@@H](CC[C@@H]3[C@@H]2CC[C@]2(C)[C@@H](C(=O)Cn4cncn4)CC[C@@H]32)C1 [3α-Hydroxy-3β-methyl-21-(1',2',4'-triazolyl)-5α-pregnan-20-one] | 0.125 µM | 105% | response vs control in vivo at 10 mg/kg [2]: 153%; responders at 10 mg/kg ([1]; IP, 10 mg/kg): 87.5% |
| CC(=O)c1ccc(C#C[C@@]2(O)CC[C@@]3(C)[C@@H](CC[C@@H]4[C@@H]3CC[C@]3(C)[C@@H](C(=O)COC(=O)CCC(=O)[O-])CC[C@@H]43)C2)cc1.[Na+] [3β-(4'-Acetylphenylethynyl)-3α,21-dihidroxy-5α-pregnan-20-one 21-hemisuccinate sodium salt] | – | – | % Control [2]: 166%; % Protected ([1]; PO, 10 mg/kg): 80% |
| CC(=O)c1ccc(C#CC2(O)CCC3(C)C(CCC4C3CCC3(C)C(C(=O)COC(=O)CCC(=O)[O-])CCC43)C2)cc1.[Na+] (stereo not drawn) [3β-(4'-Acetylphenylethynyl)-3α,21-dihydroxy-5β-pregnan-20-one 21-hemisuccinate sodium salt] | – | – | % Control [2]: 248%; % Protected ([1]; PO, 10 mg/kg): 75% |
| CC(=O)OCCCC#C[C@@]1(O)CC[C@@]2(C)[C@H](CC[C@@H]3[C@@H]2CC[C@]2(C)[C@@H](C(C)=O)CC[C@@H]32)C1 [3β-(5'-Acetoxy-1'-pentynyl)-3α-hydroxy-5β-pregnan-20-one] | 0.096 µM | 98% | responders at 10 mg/kg ([1]; IP, 10 mg/kg): 12.5% |
| CC(=O)[C@H]1CC[C@H]2[C@@H]3CC[C@@H]4C[C@@](O)(C#CCCCC#N)CC[C@]4(C)[C@H]3CC[C@]12C [3β-(5-Cyano-1-pentynyl)-3α-hydroxy-5β-pregnan-20-one] | 0.158 µM | 100% | responders at 10 mg/kg ([1]; IP, 10 mg/kg): 25% |
| CC(=O)[C@H]1CC[C@H]2[C@@H]3CC[C@@H]4C[C@@](O)(Cc5ccccc5)CC[C@]4(C)[C@H]3CC[C@]12C [3β-Benzyl-3α-hydroxy-5β-pregnan-20-one, 3α-hydroxy-3β-benzyl-5β-pregnan-20-one] | 0.109 µM | 102% | – |
| CC(=O)[C@H]1CC[C@H]2[C@@H]3CC[C@H]4C[C@@H](O)CC[C@]4(C)[C@H]3CC[C@]12C [3β-Hydroxy-5α-pregnan-20-one, reference compound] | > 1000 µM | 33% | – |
| CC(=O)[C@H]1CC[C@H]2[C@@H]3CC[C@@H]4C[C@@](O)(C#CCN(C)C)CC[C@]4(C)[C@H]3CC[C@]12C [3β-[3'-(N,N-dimethylamino)-1'-propynyl]-3α-hydroxy-5β-pregnan-20-one] | 1.42 µM | 100% | – |
| CCN(CC)C(=O)c1ccc(C#CC2(O)CCC3(C)C(CCC4C3CCC3(C)C(C(C)=O)CCC43)C2)cc1 (stereo not drawn) [3β-[4'-(N,N-diethylcarboxamido)phenyl]ethynyl-3α-hydroxy-5β-pregnan-20-one] | 0.087 µM | 94% | – |
| C#C[C@@]1(O)CC[C@@]2(C)[C@H](CC[C@@H]3[C@@H]2CC[C@]2(C)[C@@H](C(=O)Cn4cncn4)CC[C@@H]32)C1 [3β-ethynyl-3α-hydroxy-21-(1',2',4'-triazoyl)-5β-pregnan-20-one] | 0.127 µM | 98% | – |
| CC(=O)C1CCC2C3CCC4CC(OC(=O)c5ccc(Cl)cc5)CCC4(C)C3CCC12C (stereo not shown) [4-Chlorophenyl] | – | – | % Protection ([1]; 60 mg/kg, 1hr, IP): 50% |

| SMILES | IC50 (GR complex) | IMAX (GR complex) | other results |
| --- | --- | --- | --- |
| COc1ccc(C(=O)OC2CCC3(C)C(CCC4C3CCC3(C)C(C(C)=O)CCC43)C2)cc1 (stereo not shown) [4-Methoxyphenyl] | – | – | % Protection ([1]; 60 mg/kg, 1hr, IP): 17% |
| C[C@]12C[C@H](O)[C@H]3[C@@H](CCC4=CC(=O)CC[C@@]43C)[C@@H]1CC[C@@H]2C(=O)CO [4-Pregnen-11β,21-diol-3,20-dione, reference compound] | > 1000 µM | 30% | – |
| C[C@]12CC[C@@H]3c4ccc(O)cc4CC[C@H]3[C@@H]1CC[C@@H]2O [17β-Estradiol, reference compound] | – | 0% | – |
| C[C@@]1(O)CC[C@@]2(C)[C@@H](CC[C@@H]3[C@@H]2CC[C@]2(C)[C@@H](C(=O)Cn4cnc5ccccc54)CC[C@@H]32)C1 [21-(1' benzimidazolyl)-3α-hydroxy-3β-methyl-5α-pregnan-20-one] | 0.109 µM | 95% | – |
| CCCCC(=O)OC1CCC2(C)C(CCC3C2CCC2(C)C(C(C)=O)CCC32)C1 (stereo not shown) [Butyl] | – | – | % Protection ([1]; mouse, in vivo): 33% |
| CC(C)CCC[C@@H](C)[C@H]1CC[C@H]2[C@@H]3CC=C4C[C@@H](O)CC[C@]4(C)[C@H]3CC[C@]12C [Cholesterol, reference compound] | – | 0% | – |
| CCC(=O)OC1CCC2(C)C(CCC3C2CCC2(C)C(C(C)=O)CCC32)C1 (stereo not shown) [Ethyl] | – | – | % Protection ([1]; 60 mg/kg, 1hr, IP): 75% |
| CC(=O)C1CCC2C3CCC4CC(OC(=O)C(C)C)CCC4(C)C3CCC12C (stereo not shown) [Example 2-Propyl] | – | – | % Protection ([1]; 60 mg/kg, 1hr, IP): 75% |
| CC(=O)C1CCC2C3CCC4CC(OC(=O)c5cccnc5)CCC4(C)C3CCC12C (stereo not shown) [Example 3-Pyridyl] | – | – | % Protection ([1]; 60 mg/kg, IP, 20hour): 50(20hour) % |
| CCCC(CCC)C(=O)OC1CCC2(C)C(CCC3C2CCC2(C)C(C(C)=O)CCC32)C1 (stereo not shown) [Example 4-Heptyl] | – | – | % Protection ([1]; 60 mg/kg, IP, 4 hour): 16 (4 hour) % |
| CC(=O)OC1CCC2(C)C(CCC3C2CCC2(C)C(C(C)=O)CCC32)C1 (stereo not shown) [Methyl] | – | – | % Protection ([1]; 60 mg/kg, 1hr, IP): 25% |
| CC(=O)[C@H]1CC[C@H]2[C@@H]3CC[C@H]4C[C@H](OC(=O)c5ccccc5)CC[C@]4(C)[C@H]3CC[C@]12C [Phenyl] | – | – | % Protection ([1]; 60 mg/kg, 1hr, IP): 33% |
| CC(=O)[C@H]1CC[C@H]2[C@@H]3CCC4=CC(=O)CC[C@]4(C)[C@H]3CC[C@]12C [Progesterone, reference compound] | 5.2 µM | 100% | – |
| CCCC(=O)OC1CCC2(C)C(CCC3C2CCC2(C)C(C(C)=O)CCC32)C1 (stereo not shown) [Propyl] | – | – | % Protection ([1]; 60 mg/kg, 1hr, IP): 75% |
| CC12CCC3C4CCC(O)(C(F)(F)F)CC4CCC3C1CCC2C(=O)CSS(=O)(=O)[O-].[Na+] (stereo not drawn) [Sodium S-(3α-hydroxy-3β-trifluoromethyl-5β-19-norpregnan-20-on-21-yl) thiosulfate] | 0.325 µM | 98% | % Protected ([1]; IP, 40 mg/kg): 37.5% |
| C[C@]12CC[C@@H](O)C[C@@H]1CC[C@@H]1[C@@H]2CC[C@]2(C)[C@@H](C(=O)CSS(=O)(=O)[O-])CC[C@@H]12.[Na+] [Sodium S-(3α-hydroxy-5α-pregnan-20-on-21-yl) thiosulfate] | 0.133 µM | 90% | – |
